Assay results from article PMC12303380 (PLOS Pathogens, 2025).
“And” between values parts separate entries of the source, which are not always exact repeats. Equal values may be shown once.

What was measured:
CD94/NKG2A [1] = conditions: cited from earlier work
CD94/NKG2C = assay type: binding, human
CD94/NKG2A [2] = assay type: binding, human
HLA-E*0103 = HLA-E*0103 (Homo sapiens, UniProt P13747); assay type: binding
CD56dimNKG2A+ NK cells = assay type: cell-based, human
CD56dimNKG2A- NK cells = assay type: cell-based, human

AISPRTLNA [AA9]
recognition of HLA-E/peptide complex by NKG2A/CD94 on NK cells (CD94/NKG2A [1]): unable to be recognized by NKG2A/CD94

EADPTGHSY [MAGE-1]
CD94/NKG2C+HLA-E+ (CD94/NKG2C): 0.54% and 1.07% and 0.11%
CD94/NKG2A+HLA-E+ (CD94/NKG2A [2]): 0.02% and 0.28% and 0.56%

EADPTGHSY/ NLVPMVATV [MAGE-1/HCMV PP65]
HLA-E MFI (HLA-E*0103): 8070 and 8138 and 7351

LQPRTFLL
recognition of HLA-E/peptide complex by CD94/NKG2A on NK cells (CD94/NKG2A [1]): could recognize and interact

NLVPMVATV [PP65]
CD107a+CD56dimCD16+NKG2A+NKG2C-CD57-NK cells (CD56dimNKG2A+ NK cells): 4.88 and 4.5 and 3.34
Perforin+CD56dimCD16+NKG2A-NKG2C-CD57-NK cells (CD56dimNKG2A- NK cells): 97.2 and 72.64 and 80.98 and 81.41

VMAPRTLIL [HLA-Cw*03 leading seq]
CD94/NKG2C+HLA-E+ (CD94/NKG2C): 1.12% and 2.94% and 8.23%
FI (HLA-E*0103): 2.38 and 2.67 and 2.55
FI (fluorescent index of HLA-E expression) (HLA-E*0103): 2.55
HLA-E MFI (HLA-E*0103): 26721 and 22777 and 24852
CD94/NKG2A+HLA-E+ (CD94/NKG2A [2]): 46.76% and 47.67% and 24.83%
frequency of CD94/NKG2A+HLA-E+ cells (CD94/NKG2A [2]): 47.67%

VMPLSAPTL
recognition of HLA-E/peptide complex by CD94/NKG2A on NK cells (CD94/NKG2A [1]): could not be interacted with CD94/NKG2A
